From PubChem BioAssay AID224 (DTP/NCI, 2004)
“And” between values parts separate entries of the source, which are not always exact repeats. Identical values can stand only once. Inconclusive results and toxic doses are left out.

System: P335 leukemia ip, BDF1 mice, survival T/C %
Test: NCI In Vivo Anticancer Drug Screen. Data for tumor model P335 Leukemia (intraperitoneal) in B6D2F1 (BDF1) mice
Conditions: endpoint: mean survival time, higher = longer survival
Procedure: The antitumor activity of compounds was measured in mice bearing transplantable tumors. Survival or tumor size were measured and the results are expressed as the measurement made in the treated group (T) divided by the measurement made in the vehicle treated control group (C). The tumor model used in this assay is P335 Leukemia (intraperitoneal) in B6D2F1 (BDF1) mice

[1] = dose: 8.0 mg/kg/injection, schedule: Q01DX Z (ip), vehicle: carboxymethylcellulose (CMC)
[2] = dose: 16.0 mg/kg/injection, schedule: Q01DX Z (ip), vehicle: carboxymethylcellulose (CMC)
[3] = dose: 31.0 mg/kg/injection, schedule: Q01DX Z (ip), vehicle: carboxymethylcellulose (CMC)
[4] = dose: 125.0 mg/kg/injection, schedule: Q01DX Z (ip), vehicle: carboxymethylcellulose (CMC)
[5] = dose: 4.0 mg/kg/injection, schedule: Q01DX Z (ip), vehicle: carboxymethylcellulose (CMC)
[6] = dose: 31.25 mg/kg/injection, schedule: Q01DX Z (ip), vehicle: carboxymethylcellulose (CMC)
[7] = dose: 250.0 mg/kg/injection, schedule: Q01DX Z (ip), vehicle: carboxymethylcellulose (CMC)
[8] = dose: 250.0 mg/kg/injection, schedule: Q01DX Z (sc), vehicle: steriod suspending solution
[9] = dose: 1.6 mg/kg/injection, schedule: Q01DX Z (ip), vehicle: carboxymethylcellulose (CMC)
[10] = dose: 3.1 mg/kg/injection, schedule: Q01DX Z (ip), vehicle: carboxymethylcellulose (CMC)

Structure (SMILES): N=[N+]=CC(=O)OCC(N)C(=O)O (centres undefined)
- T/C (dose: 1.18 mg/kg/injection, schedule: Q01DX Z (ip), vehicle: saline): 101 % of control
- T/C (dose: 2.35 mg/kg/injection, schedule: Q01DX Z (ip), vehicle: saline): 122 % of control
- T/C (dose: 4.69 mg/kg/injection, schedule: Q01DX Z (ip), vehicle: saline): 122 % of control
- T/C (dose: 25.0 mg/kg/injection, schedule: Q01DX Z (ip), vehicle: saline): 106 % of control
- T/C (dose: 50.0 mg/kg/injection, schedule: Q01DX Z (ip), vehicle: saline): 94 % of control

Structure (SMILES): C[C@]12CC[C@H](OC3OC(CO)C(O)C(O)C3O)C[C@H]1CC[C@@H]1[C@@H]2CC[C@]2(C)[C@@H](C3=CCOC3=O)CC[C@]12O (some centres undefined)
- T/C (dose: 0.04 mg/kg/injection, schedule: Q01DX Z (ip), vehicle: saline): 97 % of control
- T/C (dose: 0.08 mg/kg/injection, schedule: Q01DX Z (ip), vehicle: saline): 96 % of control
- T/C (dose: 0.16 mg/kg/injection, schedule: Q01DX Z (ip), vehicle: saline): 92 % of control
- T/C (dose: 0.31 mg/kg/injection, schedule: Q01DX Z (ip), vehicle: saline): 86 % of control

Structure (SMILES): NC(N)=Nc1nc2ccccc2o1
- T/C (dose: 2.0 mg/kg/injection, schedule: Q01DX Z (ip), vehicle: carboxymethylcellulose (CMC)): 92 % of control
- T/C [1]: 90 % of control
- T/C [2]: 90 % of control
- T/C [3]: 94 % of control
- T/C (dose: 63.0 mg/kg/injection, schedule: Q01DX Z (ip), vehicle: carboxymethylcellulose (CMC)): 94 % of control
- T/C [4]: 86 % of control

Structure (SMILES): O=c1[nH]c(=O)n(C2CC(O)C(CO)O2)cc1F (centres undefined)
- T/C (dose: 25.0 mg/kg/injection, schedule: Q01DX Z (ip), vehicle: carboxymethylcellulose (CMC)): 111 % of control
- T/C (dose: 50.0 mg/kg/injection, schedule: Q01DX Z (ip), vehicle: carboxymethylcellulose (CMC)): 104 % of control
- T/C (dose: 100.0 mg/kg/injection, schedule: Q01DX Z (ip), vehicle: carboxymethylcellulose (CMC)): 111 % of control
- T/C (dose: 200.0 mg/kg/injection, schedule: Q01DX Z (ip), vehicle: carboxymethylcellulose (CMC)): 114 % of control
- T/C (dose: 400.0 mg/kg/injection, schedule: Q01DX Z (ip), vehicle: carboxymethylcellulose (CMC)): 87 % of control
- T/C (dose: 800.0 mg/kg/injection, schedule: Q01DX Z (ip), vehicle: carboxymethylcellulose (CMC)): 86 % of control

Structure (SMILES): CS(=O)(=O)OCCCCOS(C)(=O)=O
- T/C (dose: 0.2 mg/kg/injection, schedule: Q01DX Z (ip), vehicle: methylcellulose (MC)): 87 % of control
- T/C (dose: 0.4 mg/kg/injection, schedule: Q01DX Z (ip), vehicle: methylcellulose (MC)): 100 % of control
- T/C (dose: 0.8 mg/kg/injection, schedule: Q01DX Z (ip), vehicle: methylcellulose (MC)): 98 % of control
- T/C (dose: 1.6 mg/kg/injection, schedule: Q01DX Z (ip), vehicle: methylcellulose (MC)): 89 % of control and 104 % of control
- T/C (dose: 6.4 mg/kg/injection, schedule: Q01DX Z (ip), vehicle: methylcellulose (MC)): 94 % of control
- T/C (dose: 12.8 mg/kg/injection, schedule: Q01DX Z (ip), vehicle: methylcellulose (MC)): 94 % of control
- T/C (dose: 25.6 mg/kg/injection, schedule: Q01DX Z (ip), vehicle: methylcellulose (MC)): 87 % of control

Structure (SMILES): CCOC(=O)NP(=O)(N1CC1(C)C)N1CC1(C)C (centres undefined)
- T/C [5]: 101 % of control
- T/C [1]: 106 % of control
- T/C [2]: 114 % of control
- T/C [6]: 101 % of control
- T/C [4]: 88 % of control
- T/C [7]: 93 % of control

Structure (SMILES): CC[C@H](c1ccc(O)cc1)[C@@H](CC)c1ccc(O)cc1
- T/C (dose: 0.5 mg/kg/injection, schedule: Q01DX Z (sc), vehicle: steriod suspending solution): 103 % of control
- T/C (dose: 1.0 mg/kg/injection, schedule: Q01DX Z (sc), vehicle: steriod suspending solution): 108 % of control
- T/C (dose: 2.0 mg/kg/injection, schedule: Q01DX Z (sc), vehicle: steriod suspending solution): 115 % of control and 116 % of control
- T/C (dose: 4.0 mg/kg/injection, schedule: Q01DX Z (sc), vehicle: steriod suspending solution): 114 % of control
- T/C (dose: 8.0 mg/kg/injection, schedule: Q01DX Z (sc), vehicle: steriod suspending solution): 122 % of control
- T/C (dose: 16.0 mg/kg/injection, schedule: Q01DX Z (sc), vehicle: steriod suspending solution): 111 % of control
- T/C (dose: 31.0 mg/kg/injection, schedule: Q01DX Z (sc), vehicle: steriod suspending solution): 105 % of control
- T/C (dose: 62.5 mg/kg/injection, schedule: Q01DX Z (sc), vehicle: steriod suspending solution): 103 % of control and 111 % of control
- T/C (dose: 125.0 mg/kg/injection, schedule: Q01DX Z (sc), vehicle: steriod suspending solution): 103 % of control
- T/C [8]: 106 % of control
- T/C (dose: 500.0 mg/kg/injection, schedule: Q01DX Z (sc), vehicle: steriod suspending solution): 97 % of control

Structure (SMILES): N[C@@H](Cc1ccc(N(CCCl)CCCl)cc1)C(=O)O
- T/C (dose: 1.25 mg/kg/injection, schedule: Q01DX Z (ip), vehicle: saline): 168 % of control
- T/C (dose: 2.5 mg/kg/injection, schedule: Q01DX Z (ip), vehicle: saline): 169 % of control and 195 % of control
- T/C (dose: 5.0 mg/kg/injection, schedule: Q01DX Z (ip), vehicle: saline): 106 % of control

Structure (SMILES): S=c1nc[nH]c2nc[nH]c12
- T/C (dose: 37.5 mg/kg/injection, schedule: Q01DX Z (ip), vehicle: other): 116 % of control
- T/C (dose: 75.0 mg/kg/injection, schedule: Q01DX Z (ip), vehicle: other): 114 % of control
- T/C (dose: 300.0 mg/kg/injection, schedule: Q01DX Z (ip), vehicle: other): 122 % of control

Structure (SMILES): Cn1c(N)nc2nc[nH]c2c1=S
- T/C [9]: 94 % of control
- T/C [10]: 94 % of control
- T/C (dose: 6.3 mg/kg/injection, schedule: Q01DX Z (ip), vehicle: carboxymethylcellulose (CMC)): 92 % of control

Structure (SMILES): OCC1OC(n2cnc3c(=S)nc[nH]c32)C(O)C1O (centres undefined)
- T/C [2]: 87 % of control and 90 % of control
- T/C [3]: 109 % of control and 110 % of control
- T/C (dose: 62.5 mg/kg/injection, schedule: Q01DX Z (ip), vehicle: carboxymethylcellulose (CMC)): 98 % of control
- T/C [4]: 93 % of control

Structure (SMILES): c1ccc(CNc2ncnc3[nH]ncc23)cc1
- T/C [5]: 89 % of control
- T/C [1]: 90 % of control
- T/C [2]: 95 % of control
- T/C [6]: 101 % of control

Structure (SMILES): O=c1[nH]c(=O)n(C2CC(O)C(CO)O2)cc1Br (centres undefined)
- T/C [7]: 112 % of control
- T/C (dose: 500.0 mg/kg/injection, schedule: Q01DX Z (ip), vehicle: carboxymethylcellulose (CMC)): 115 % of control
- T/C (dose: 1000.0 mg/kg/injection, schedule: Q01DX Z (ip), vehicle: carboxymethylcellulose (CMC)): 94 % of control and 121 % of control

Structure (SMILES): CN(C)CC(=O)c1ccc(O)c(O)c1
- T/C (dose: 15.6 mg/kg/injection, schedule: Q01DX Z (ip), vehicle: saline): 103 % of control
- T/C (dose: 31.25 mg/kg/injection, schedule: Q01DX Z (ip), vehicle: saline): 109 % of control
- T/C (dose: 62.5 mg/kg/injection, schedule: Q01DX Z (ip), vehicle: saline): 113 % of control
- T/C (dose: 125.0 mg/kg/injection, schedule: Q01DX Z (ip), vehicle: saline): 109 % of control and 119 % of control
- T/C (dose: 500.0 mg/kg/injection, schedule: Q01DX Z (ip), vehicle: saline): 89 % of control

Structure (SMILES): C[C@]12CCC(=O)C=C1CC[C@@H]1[C@@H]2C(=O)C[C@@]2(C)[C@H]1CC[C@]2(O)C(=O)CO
- T/C (dose: 3.9 mg/kg/injection, schedule: Q01DX Z (sc), vehicle: steriod suspending solution): 111 % of control
- T/C (dose: 31.25 mg/kg/injection, schedule: Q01DX Z (sc), vehicle: steriod suspending solution): 101 % of control
- T/C [8]: 94 % of control

Structure (SMILES): CCN(CC)c1ccc2cc3ccc(=[N+](CC)CC)cc-3oc2c1
- T/C (dose: 0.31 mg/kg/injection, schedule: Q01DX Z (ip), vehicle: carboxymethylcellulose (CMC)): 87 % of control
- T/C (dose: 0.62 mg/kg/injection, schedule: Q01DX Z (ip), vehicle: carboxymethylcellulose (CMC)): 97 % of control and 98 % of control
- T/C (dose: 1.25 mg/kg/injection, schedule: Q01DX Z (ip), vehicle: carboxymethylcellulose (CMC)): 108 % of control and 123 % of control

Structure (SMILES): Clc1ccc(C(c2ccccc2Cl)C(Cl)Cl)cc1 (centres undefined)
- T/C (dose: 12.5 mg/kg/injection, schedule: Q01DX Z (sc), vehicle: steriod suspending solution): 96 % of control
- T/C (dose: 25.0 mg/kg/injection, schedule: Q01DX Z (sc), vehicle: steriod suspending solution): 96 % of control
- T/C (dose: 50.0 mg/kg/injection, schedule: Q01DX Z (sc), vehicle: steriod suspending solution): 97 % of control
- T/C (dose: 100.0 mg/kg/injection, schedule: Q01DX Z (sc), vehicle: steriod suspending solution): 92 % of control

Structure (SMILES): CS(=O)(=O)OCCCl
- T/C (dose: 0.8 mg/kg/injection, schedule: Q01DX Z (ip), vehicle: carboxymethylcellulose (CMC)): 98 % of control
- T/C [9]: 93 % of control
- T/C [10]: 102 % of control
- T/C (dose: 6.2 mg/kg/injection, schedule: Q01DX Z (ip), vehicle: carboxymethylcellulose (CMC)): 86 % of control
